Key:
[1] = test system: resistant L1210 murine leukemia cells; assay: Multiple drug resistance test, 3H-thymidine uptake; assay type: cell-based; settings: Mus musculus, daunorubicin alone, 24 hours, read-out: IC₅₀ in Resistant Cells
Experimental: (§1) Multiple drug resistance (MDR) was tested in vitro using resistant and sensitive L1210 murine leukemia cells. Liposomal Cyclosporine was obtained as described in Example 13 (19:3:1 formulation HEPC:DMPG:Cyclosporine) except that a spray dried lipid powder was used and the unilamellar vesicles were formed through homogenization. Daunorubicin, Cyclosporine-CreL, and liposomal Cyclosporine were diluted in RPMI-1640. The final concentration of daunorubicin in each well was 0, 0.3, 1, 3, 10, 30, 100 or 1000 ng/ml. The final concentration of Cyclosporine-CreL in each well was 0, 10, 70, 300, 1,250, 5,000, 20,000, 80,000, 160,000, 310,000, 620,000, or 1,050,000 ng/ml. The final concentration of liposomal Cyclosporine in each well was 0, 10, 70, 300, 1,250, 5,000, 20,000, 80,000, 160,000, 310,000, 620,000, or 1,050,000 ng/ml. Fifty microliters of each daunorubicin concentration was added to one well of a flat bottom 96-well culture plate. Fifty microliters of the appropriate concentration of Cyclosporine-CreL or liposomal Cyclosporine were also added to each well. Each drug combination was tested in triplicate. […]
(§2) After 20 hours of incubation, the cells were pulsed with 0.5µCu of³H-Thymidine per well. […] The cells in each well were then harvested using a Skatron Harvester and counted in a beta liquid scintillation counter (LKB). The IC₅₀ was calculated using a linear regression treatment of the data.

[2] = test system: sensitive L1210 murine leukemia cells; assay: Multiple drug resistance test, 3H-thymidine uptake; assay type: cell-based; settings: Mus musculus, daunorubicin alone, 24 hours, read-out: IC₅₀ in Sensitive Cells
Experimental: as §1, §2

`COc1cccc2c1C(=O)c1c(O)c3c(c(O)c1C2=O)C[C@@](O)(C(C)=O)C[C@@H]3O[C@H]1C[C@H](N)[C@H](O)[C@H](C)O1` [Daunorubicin] gave an IC50 [1] of 0.722 µg/mL and an IC50 [2] of 0.47 µg/mL.
